The results in this text go back to US9714243B2, “4-pyridinonetriazine derivatives as HIV integrase inhibitors” (Merck Sharp & Dohme Corp., priority 2012, dated 2017).

Each structure is given as a SMILES string. Where two headings read alike, the source gives them in different places.

The subject of this test is HIV-1 (NL4-3 strain). The test can be described thus: Assay for inhibition of HIV replication (ViKinG; infected MT4-GFP cells). The test is classed as cell-based. The method, boiled down:
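MT4-GFP cells infected with NL4-3 at low MOI for 24 h, washed, then exposed to serially diluted compound (0.4% DMSO) in RPMI. GFP+ cells counted at 24 and 48 h; R0 = 48 h/24 h ratio, inhibition normalised to DMSO and triple-drug controls, IC50 from 4-parameter fit.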

The mark [1] stands for this setting: Human immunodeficiency virus 1, NL43, MT4-GFP cells infected with HIV-1 NL4-3, 0% normal human serum (NHS), read-out: ViKinG IP (nM) with 0% NHS.
The mark [2] stands for this setting: MT4-GFP cells infected with HIV-1 NL4-3, 10% normal human serum (NHS), read-out: ViKinG IP (nM) with 10% NHS.
Where [3] appears, read: MT4-GFP cells infected with HIV-1 NL4-3, 0% normal human serum (NHS), read-out: ViKinG IP (nM) with 0% NHS.
The mark [4] stands for this setting: Human immunodeficiency virus 1, NL43, MT4-GFP cells infected with HIV-1 NL4-3, 10% normal human serum (NHS), read-out: ViKinG IP (nM) with 10% NHS.
Setting [5] is: Human immunodeficiency virus 1, NL43, MT4-GFP cells infected with HIV-1 NL4-3, 100% normal human serum (NHS), read-out: ViKinG IP (nM) with 100% NHS.
Setting [6] is: MT4-GFP cells infected with HIV-1 NL4-3, 100% normal human serum (NHS), read-out: ViKinG IP (nM) with 100% NHS.

`CN1C(=O)c2c(O)c(=O)c(-c3nnc(Cc4ccc(F)cc4F)s3)cn2N(C)C12CCC(C(=O)NCc1cnoc1)CC2` (stereo not shown) [Compound 127]: the IC50 was found to be 112 nM under setting [1] and 376 nM under setting [2].

Turning to `CN1C(=O)c2c(O)c(=O)c(-c3nnc(Cc4ccc(F)cc4F)s3)cn2N(C)C12CCC(C(=O)NCc1cnoc1)CC2` (stereo not shown) [Compound 128], the IC50 under setting [3] was 81.8 nM and the IC50 under setting [2] was determined as 101 nM.

For `CN1C(=O)c2c(O)c(=O)c(-c3nnc(Cc4ccc(F)cc4F)s3)cn2N(C)C12CCC(C(=O)NCC1CCOC1)CC2` (stereo not shown) [Compound 129], the IC50 turned out to be 67.7 nM under setting [3] and 1080 nM under setting [2].

With `CN1C(=O)c2c(O)c(=O)c(-c3nnc(Cc4ccc(F)cc4F)s3)cn2N(C)C12CCC(C(=O)NCC1CCOC1)CC2` (stereo not shown) [Compound 130], the IC50 reads like this: under setting [3], 13.7 nM; under setting [2], 33.9 nM.

For the compound `CN1C(=O)c2c(O)c(=O)c(-c3nnc(Cc4ccc(F)cc4F)s3)cn2N(C)C12CCC(C(=O)NCc1cn(C)cn1)CC2` (stereo not shown) [Compound 131], the IC50 was 459 nM under setting [3] and 642 nM under setting [2].

On to `CN1C(=O)c2c(O)c(=O)c(-c3nnc(Cc4ccc(F)cc4F)s3)cn2N(C)C12CCC(C(=O)NCc1cn(C)cn1)CC2` (stereo not shown) [Compound 132], for which the IC50 under setting [3] worked out at 109 nM and the IC50 under setting [2] is 173 nM.

As for `CN1C(=O)c2c(O)c(=O)c(-c3nnc(Cc4ccc(F)cc4F)s3)cn2N(C)C12CCC(C(=O)NCc1cncs1)CC2` (stereo not shown) [Compound 133], the IC50 was 190 nM under setting [3] and 548 nM under setting [2].

For the compound `CN1C(=O)c2c(O)c(=O)c(-c3nnc(Cc4ccc(F)cc4F)s3)cn2N(C)C12CCC(C(=O)NCc1cncs1)CC2` (stereo not shown) [Compound 134], the IC50 by setting is: under setting [3], 20.9 nM; under setting [2], 122 nM.

In the case of `COc1cc(CNC(=O)C2CCC3(CC2)N(C)C(=O)c2c(O)c(=O)c(-c4nnc(Cc5ccc(F)cc5F)s4)cn2N3C)on1` (stereo not shown) [Compound 135], the IC50 by setting is: under setting [4], 290 nM; under setting [3], 76.3 nM.

On to `COc1cc(CNC(=O)C2CCC3(CC2)N(C)C(=O)c2c(O)c(=O)c(-c4nnc(Cc5ccc(F)cc5F)s4)cn2N3C)on1` (stereo not shown) [Compound 136], for which the IC50 was determined as 30.8 nM under setting [3] and 151 nM under setting [2].

With `CN1C(=O)c2c(O)c(=O)c(-c3nnc(Cc4ccc(F)cc4F)s3)cn2N(C)C12CCC(C(=O)NCC1CCS(=O)(=O)C1)CC2` (stereo not shown) [Compound 137], the IC50 under setting [4] was 707 nM and the IC50 under setting [3] came to 108 nM.

On to `CN1C(=O)c2c(O)c(=O)c(-c3nnc(Cc4ccc(F)cc4F)s3)cn2N(C)C12CCC(C(=O)NCC1CCS(=O)(=O)C1)CC2` (stereo not shown) [Compound 138], for which the IC50 runs as follows: under setting [3], 445 nM; under setting [2], 1180 nM.

For `CN(CCNC(=O)C1CCC2(CC1)N(C)C(=O)c1c(O)c(=O)c(-c3nnc(Cc4ccc(F)cc4F)s3)cn1N2C)C(=O)OC(C)(C)C` (stereo not shown) [Compound 139], the IC50 came out at 54.3 nM under setting [1] and 186 nM under setting [2].

For `CN(CCNC(=O)C1CCC2(CC1)N(C)C(=O)c1c(O)c(=O)c(-c3nnc(Cc4ccc(F)cc4F)s3)cn1N2C)C(=O)OC(C)(C)C` (stereo not shown) [Compound 140], the IC50 by setting is: under setting [3], 61.6 nM; under setting [2], 28.2 nM.

`CN1C(=O)c2c(O)c(=O)c(-c3nnc(Cc4ccc(F)cc4F)s3)cn2N(C)C12CCC(C(=O)NC1CC1)C2` (stereo not shown) [Compound 141]: the IC50 by setting is: under setting [1], 59.7 nM; under setting [5], 1990 nM.

As for `CN1C(=O)c2c(O)c(=O)c(-c3nnc(Cc4ccc(F)cc4F)s3)cn2N(C)C12CC[C@@H](C(=O)NC1CC1)C(C)(C)C2` (stereo partly shown) [Compound 142], the IC50 by setting is: under setting [1], 5.63 nM; under setting [5], 558 nM.

Turning to `CN1C(=O)c2c(O)c(=O)c(-c3nnc(Cc4ccc(F)cc4F)s3)cn2N(C)C12CC[C@@H](C(=O)NC1CC1)C(C)(C)C2` (stereo partly shown) [Compound 143], the IC50 runs as follows: under setting [3], 7.48 nM; under setting [6], 817 nM.

Consider `CC(C)[C@]1(C(=O)NC2CC2)CCC2(C1)N(C)C(=O)c1c(O)c(=O)c(-c3nnc(Cc4ccc(F)cc4F)s3)cn1N2C` (stereo partly shown) [Compound 144], for which the IC50 is, setting by setting: under setting [1], 10.7 nM; under setting [5], 205 nM.

For `CN(C)C(=O)C1CCC2(CC1)N(C)C(=O)c1c(O)c(=O)c(-c3nnc(Cc4ccc(F)cc4)s3)cn1N2C` (stereo not shown) [Compound 145], the IC50 under setting [2] worked out at 102 nM.

As for `CN(C)C(=O)C1CCC2(CC1)N(C)C(=O)c1c(O)c(=O)c(-c3nnc(Cc4ccc(F)cc4)s3)cn1N2C` (stereo not shown) [Compound 146], the IC50 reads like this: under setting [5], 188 nM; under setting [2], 9.02 nM.

In the case of `CN(C)C(=O)C1(C)CCC2(CC1)N(C)C(=O)c1c(O)c(=O)c(-c3nnc(Cc4ccc(F)cc4)s3)cn1N2C` (stereo not shown) [Compound 147], the IC50 came out at 15.1 nM under setting [4] and 117 nM under setting [5].

`CN(C)C(=O)C1(C)CCC2(CC1)N(C)C(=O)c1c(O)c(=O)c(-c3nnc(Cc4ccc(F)cc4)s3)cn1N2C` (stereo not shown) [Compound 148]: the IC50 is, setting by setting: under setting [2], 8.6 nM; under setting [6], 119 nM.

For the compound `C[C@H]1CC2(CC[C@@H]1C(=O)N(C)C)N(C)C(=O)c1c(O)c(=O)c(-c3nnc(Cc4ccc(F)cc4)s3)cn1N2C` (stereo partly shown) [Compound 149], the IC50 under setting [4] stood at 43.7 nM.

For the compound `C[C@@H]1CC2(CC[C@@H]1C(=O)N(C)C)N(C)C(=O)c1c(O)c(=O)c(-c3nnc(Cc4ccc(F)cc4)s3)cn1N2C` (stereo partly shown) [Compound 150], the IC50 is 13.3 nM under setting [1], 18.9 nM under setting [4] and 221 nM under setting [5].

As for `CN1C2CCCCN2C(=O)c2c(O)c(=O)c(-c3nnc(Cc4ccc(F)cc4)s3)cn21` (stereo not shown) [Compound 153], the IC50 reads like this: under setting [5], 1430 nM; under setting [2], 16.5 nM.

Consider `CN1C2CCCCN2C(=O)c2c(O)c(=O)c(-c3nnc(Cc4ccc(F)cc4)s3)cn21` (stereo not shown) [Compound 154], for which the IC50 by setting is: under setting [2], 33.9 nM; under setting [6], 1590 nM.

Consider `CC1CCC2N1C(=O)c1c(O)c(=O)c(-c3nnc(Cc4ccc(F)cc4F)s3)cn1N2C` (stereo not shown) [Compound 156], for which the IC50 was 26.7 nM under setting [4] and 989 nM under setting [5].

For `CN1C2CCCCN2C(=O)c2c(O)c(=O)c(-c3nnc(Cc4ccc(F)cc4F)s3)cn21` (stereo not shown) [Compound 157], the IC50 is, setting by setting: under setting [4], 14.2 nM; under setting [5], 613 nM.

As for `CN1C2CCCCN2C(=O)c2c(O)c(=O)c(-c3nnc(Cc4ccc(F)cc4F)s3)cn21` (stereo not shown) [Compound 158], the IC50 turned out to be 17.7 nM under setting [2] and 503 nM under setting [6].

In the case of `CN1C2COCCN2C(=O)c2c(O)c(=O)c(-c3nnc(Cc4ccc(F)cc4)s3)cn21` (stereo not shown) [Compound 161], the IC50 runs as follows: under setting [2], 41.1 nM; under setting [6], 465 nM.

In the case of `CN1C2COCCN2C(=O)c2c(O)c(=O)c(-c3nnc(Cc4ccc(F)cc4)s3)cn21` (stereo not shown) [Compound 162], the IC50 reads like this: under setting [2], 10.8 nM; under setting [6], 186 nM.

With `CN1C2C(O)CCCN2C(=O)c2c(O)c(=O)c(-c3nnc(Cc4ccc(F)cc4F)s3)cn21` (stereo not shown) [Compound 164], the IC50 is, setting by setting: under setting [3], 3.48 nM; under setting [6], 82.2 nM.

As for `CN1C2C(O)CCCN2C(=O)c2c(O)c(=O)c(-c3nnc(Cc4ccc(F)cc4F)s3)cn21` (stereo not shown) [Compound 165], the IC50 is, setting by setting: under setting [3], 5.12 nM; under setting [6], 54 nM.

In the case of `CN1C2C(O)CCCN2C(=O)c2c(O)c(=O)c(-c3nnc(Cc4ccc(F)cc4F)s3)cn21` (stereo not shown) [Compound 166], the IC50 by setting is: under setting [3], 9 nM; under setting [6], 162 nM.

Take `CN1C2C(O)CCCN2C(=O)c2c(O)c(=O)c(-c3nnc(Cc4ccc(F)cc4F)s3)cn21` (stereo not shown) [Compound 167]: the IC50 by setting is: under setting [3], 2.52 nM; under setting [6], 41.9 nM.

`CCN1C(=O)c2c(O)c(=O)c(-c3nnc(Cc4ccc(F)cc4)s3)cn2N(CCOC)C1C` (stereo not shown) [Compound 169]: the IC50 is, setting by setting: under setting [4], 90 nM; under setting [5], 1510 nM.

Regarding `CCN1C(=O)c2c(O)c(=O)c(-c3nnc(Cc4ccc(F)cc4)s3)cn2N(CC(=O)N(C)C)C1(C)C` [Compound 171], the IC50 was found to be 21 nM under setting [4] and 673 nM under setting [5].

Consider `COCCN1C(=O)c2c(O)c(=O)c(-c3nnc(Cc4ccc(F)cc4F)s3)cn2N(C)C12CCC2` [Compound 173], for which the IC50 runs as follows: under setting [1], 7 nM; under setting [5], 526 nM.

With `CN1C(=O)c2c(O)c(=O)c(C(=O)NCc3ccc(F)cc3F)cn2CC12CC2` [Compound 174], the IC50 was found to be 2.87 nM under setting [1] and 125 nM under setting [5].

Take `C[C@H]1n2cc(C(=O)NCc3ccc(F)cc3F)c(=O)c(O)c2C(=O)N(C)C12CC2` [Compound 175]: the IC50 was found to be 1.54 nM under setting [1] and 37.1 nM under setting [5].

Turning to `C[C@@H]1n2cc(C(=O)NCc3ccc(F)cc3F)c(=O)c(O)c2C(=O)N(C)C12CC2` [Compound 176], the IC50 runs as follows: under setting [1], 2.12 nM; under setting [5], 39 nM.

Turning to `COCCN1C(=O)c2c(O)c(=O)c(C(=O)NCc3ccc(F)cc3F)cn2CC12CCC2` [Compound 177], the IC50 is, setting by setting: under setting [1], 5.03 nM; under setting [5], 4790 nM.

As to `CN1C(=O)c2c(O)c(=O)c(C(=O)NCc3ccc(F)cc3F)cn2CC12CCC2` [Compound 178], the IC50 by setting is: under setting [1], 2.73 nM; under setting [5], 233 nM.

Take `CCN1C(=O)c2c(O)c(=O)c(C(=O)NCc3ccc(F)cc3F)cn2CC12CC2` [Compound 179]: the IC50 stood at 2.86 nM under setting [1] and 1360 nM under setting [5].

As for `COCCN1C(=O)c2c(O)c(=O)c(C(=O)NCc3ccc(F)cc3F)cn2CC12CC2` [Compound 180], the IC50 is 1.8 nM under setting [1] and 611 nM under setting [5].

Turning to `COC1CCC2(CC1)Cn1cc(C(=O)NCc3ccc(F)cc3F)c(=O)c(O)c1C(=O)N2C` (stereo not shown) [Compound 181], the IC50 under setting [1] came out at 2.48 nM and the IC50 under setting [5] amounted to 28.9 nM.
